In data set [1] the test system is Mus musculus. As to the kind of experiment: Antiwrithing activity in sc dosed mouse assessed as prevention of phenyl-p-benzoquinone-induced abdominal constriction response. The format is functional. As to conditions: Abdomen.
Data set [2] concerns Mus musculus. As to the kind of experiment: Antiwrithing activity in sc dosed mouse assessed as prevention of acetylcholine-induced abdominal constriction response. Type of data set: functional. The settings on record: Abdomen. (In general: Writhing tests count abdominal constrictions after an irritant is injected.)
Data set [3] relates to Rattus norvegicus. Put plainly: Toxicity in rat assessed as mortality at 160 mg, sc. The settings on record: in vivo. Type of data set: organism-based.
The test system of data set [4] is Mus musculus. As to the kind of experiment: Induction of convulsion in mouse at 100 mg/kg, sc. The format is organism-based. Also noted: dose 100 mg/kg, route subcutaneous. The settings on record: in vivo.
The subject of data set [5] is Rattus norvegicus. As to the kind of experiment: Narcotic analgesic activity in rat assessed as inhibition of phenazocine-induced effect at 80 mg, sc by D'Amour-Smith tail flick test. The format is functional.
Data set [6] deals with Rattus norvegicus. Put plainly: Induction of convulsion in rat at 120 mg/kg, sc. Type of data set: organism-based. Also noted: dose 120 mg/kg, route subcutaneous. The settings on record: in vivo.
Data set [7] concerns Rattus norvegicus. As to the kind of experiment: Narcotic analgesic activity in sc dosed rat assessed as inhibition of phenazocine-induced effect by D'Amour-Smith tail flick test. The format is functional. The settings on record: Rattus norvegicus, Tail, sc. (In general: In hot-plate and tail-flick tests a longer latency is read as antinociception.)

A word on the ED50: it is the dose that gives a 50% effect, or the effect in half of the subjects. `COC(=O)[C@H]1C[C@H]2CC[C@H]([C@H]1Cc1ccccc1)N2C` (racemic): the ED50 in the data set with Mus musculus [1] was determined as 20 mg/kg; in the data set with Mus musculus [2] it was 4.4 mg/kg; in the data set on Rattus norvegicus [7] it was 54 mg/kg. For the same molecule, the Activity entry in the data set with Rattus norvegicus [3], with Mus musculus [4] and in the data set with Rattus norvegicus [6] was “Toxic” throughout. Besides, the “inhibition (INH)” value in the data set with Rattus norvegicus [5] was 69%.

Source of the values: ChEMBL document CHEMBL3272190, “(2-exo-3-endo)-2-Aryltropane-3-carboxylic esters, a new class of narcotic antagonists” (J Med Chem, 1978).
